According to patent publication US20150211028A1, “Production of 1,3-Propanediol in Cyanobacteria” (Algenol Biofuels Inc., priority 2013, published 2015):

Key:
[1] = test system: Synechococcus sp. PCC 7002; assay: Tolerance testing: growth (OD750) after a one time bolus of 1,3-propanediol; assay type: cell-based; conditions: OD750 monitored for one week
Description: (§1) The tolerance of cyanobacterial strains Synechocystis sp. PCC 6803 and Synechococcus sp. PCC 7002 to the presence of accumulated 1,3-propanediol in the culture medium was examined by adding a one time bolus of varying amounts of 1,3-propanediol (ranging from 0.05% to 5%) to exponential phase cultures and comparing the growth of these cultures to a wild type culture with no addition. Growth was monitored by optical density (OD750) for one week. There was no effect on the growth of Synechocystis sp. PCC 6803 in the presence of up to 1% 1,3-propanediol compared to the control (no addition of 1,3-propanediol). […] At 5% 1,3-propanediol, Synechocystis sp. […] There was no effect on the growth of Synechococcus sp. PCC 7002 with up to 1% 1,3-propanediol addition.

[2] = test system: Synechocystis sp. PCC 6803; assay: as above; assay type: cell-based; conditions: OD750 monitored for one week
Description: as §1

With OCCCO [1,3-propanediol] the “survival of the culture” value ([1]; 2% 1,3-propanediol addition) was “lethal resulting in a completely bleached culture”, the “effect on growth compared to the control” value ([1]; up to 1% 1,3-propanediol addition, exponential phase culture) was “no effect” and the “effect on growth compared to the control” value ([2]; 2% and 3% 1,3-propanediol in culture medium) was “inhibition effect resulting in a yellowing discoloration of the culture, slower growth and clumping”. For the same compound, the “survival of the culture” value ([2]; 5% 1,3-propanediol in culture medium) was “could not survive and bleached out after 3 days” and the “effect on growth compared to the control” value ([2]; up to 1% 1,3-propanediol in culture medium, exponential phase culture) was “no effect”.
